Test results taken from patent US7098219B2, “Inhibitors of cellular efflux pumps of microbes” (Wockhart Limited, priority 2000, dated 2006).

These compounds were tested on Pseudomonas aeruginosa 23587 (assay: Antibiotic diffusion assay, levofloxacin plate versus water control plate). Conditions: zone of inhibition in levofloxacin (5 mcg/ml) plate minus water control plate; Mueller Hinton Agar, 35° C. 20 hours.
Assay type: cell-based
Protocol: Testing method for Inhibition of the Efflux Pumps of Pseudomonas aeruzinosa 23587, E. coli 2051, Streptococcus pneumoniae 3514 and Streptococcus pyozenus 26-00
Antibiotic Diffusion Assay
The activity of efflux pump inhibitor was also assessed using an antibiotic diffusion assay. For this assay Pseudomonas aeruginosa 23587 is used. Pseudomonas aeruginosa 23587 is a clinical isolate containing multiple efflux pumps which can be mexAB, mexCD, mexEF but not limited to mex classification only. Pseudomonas aeruginosa are grown in tryptic soya broth for 20 hours at 35° C. Two antibiotic assay plates are prepared in Mueller Hinton Agar using above inoculum. The bacterial count in a plate is 1×10^6 cells/ml. In one of the plates, levofloxacin is incorporated at 5 mcg/ml, while in the control plate an equivalent amount of water is added. […]. The plates are incubated at 35° C. for 20 hours and the zone of inhibition was recorded in mm (table 2). The difference in the diameter of zone of inhibition was calculated by subtracting from the diameter of the zone of inhibition in the levofloxacin containing plate the diameter of the zone of inhibition in the water containing control plate. Example, if the diameter of the zone of inhibition in the levofloxacin plate is X mm and the diameter of the zone of inhibition in the control plate is Y mm, the difference Z=X−Y and is a measure of the activity of the efflux pump inhibitor.

Row | Compound | Difference in Zone diameter Z1 (mm)
1 | C[C@@H]1CCc2c(N3CCC(OC(=O)[C@H](N)Cc4ccccc4)CC3)c(F)cc3c(=O)c(C(=O)O)cn1c23.Cl (racemic) [Example 26 (P. aeruginosa), (RS)-(±)-9-Fuoro-6,7-dihydro-8-{4′-(D-phenylalaninoxy)piperidin-1-yl}-5-methyl-1-oxo-1H,5H-benzo[i,j]quinolizine-2-carboxylic acid hydrochloride] | 12 mm
2 | CC1CCc2c(N3CC[C@@H](O)[C@H](C)C3)c(F)cc3c(=O)c(C(=O)O)cn1c23 (mixture of isomers) [Example 33 (P. aeruginosa), (RS)-(+)-9-Fluoro-6,7-dihydro-8-(trans-4′-hydroxy-3′-methylpiperidin-1-yl)-5-methyl-1-oxo-1H,5H-benzo[i,j]quinolizine-2-carboxylic acid] | 6 mm
3 | CC1CN(c2c(F)cc3c(=O)c(C(=O)O)cn4c3c2CCC4C)CCC1O (racemic) [Example 34 (P. aeruginosa), (RS)-(+)-9-Fluoro-6,7-dihydro-8-(cis-4′-hydroxy-3′-methylpiperidin-1-yl}-5-methyl-1H,5H-benzo[i,j]quinolizine-2-carboxylic acid] | 6 mm
4 | COC1CCN(c2cc3c(c(C)c2F)c(=O)c(C(=O)O)cn3C2CC2)CC1 [Example 1 (P. aeruginosa), 1-Cyclopropyl-6-fluoro-1,4-dihydro-5-methyl-7-(4′-methoxypiperidin-1-yl)-4-oxo-quinoline-3-carboxylic acid] | 13 mm
5 | COc1c(N2CCC(N)C(C)C2)c(F)c(N)c2c(=O)c(C(=O)O)cn(C3CC3)c12 (stereo not drawn) [Example 4 (P. aeruginosa), 5-Amino-1-cyclopropyl-6-fluoro-8-methoxy-1,4-dihydro-7-(4′-amino-3′-methylpiperidin-1-yl)-4-oxo-quinoline-3-carboxylic acid] | 5 mm
6 | CCNC1CCN(c2c(F)c(N)c3c(=O)c(C(=O)O)cn(C4CC4)c3c2OC)CC1(C)C (stereo not drawn) [Example 5 (P. aeruginosa), 5-Amino-1-cyclopropyl-6-fluoro-8-methoxy-1,4-dihydro-7-{3′,3′-dimethyl-4′-ethylaminopiperidin-1-yl}-4-oxo-quinoline-3-carboxylic acid] | 3 mm

The compounds below were run on Mef Efflux Pump of Streptococcus pneumoniae 3514 and Streptococcus pyogenes 26-00 (assay: Two plate diffusion assay for macrolide (Mef) efflux pump inhibitors, azithromycin plate versus control plate). Conditions: zone of inhibition in antibiotic plate (method: azithromycin 0.5 mcg/ml; footnote: levofloxacin) minus water control plate; strain not given.
Assay type: cell-based

Row | Compound | Difference in Zone diameter Z1 (mm)
7 | Cc1c(F)c(N2CCC(N)CC2)cc2c1c(=O)c(C(=O)O)cn2-c1ccc(F)cc1F [Example 18 (Mef), 1-(2′,4′-Difluorophenyl)-6-fluoro-5-methyl-1,4-dihydro-7-(4′-aminopiperidin-1′-yl)-4-oxo-quinoline-3-carboxylic acid] | 8 mm
8 | CNC1CCN(c2cc3c(c(C)c2F)c(=O)c(C(=O)O)cn3-c2ccc(F)cc2F)CC1 [Example 19 (Mef), 1-(2′,4′-Difluorophenyl)-6-fluoro-5-methyl-1,4-dihydro-7-(4′-methylaminopiperidin-1′-yl)-4-oxo-quinoline-3-carboxylic acid] | 8 mm
9 | NC1CCN(c2nc3c(cc2F)c(=O)c(C(=O)O)cn3C2CC2)C1 (stereo not drawn) [Example 20 (Mef)] | 10 mm
10 | O=C(O)c1cn(C2CC2)c2nc(N3CC4C(C3)C4NCc3ccccc3)c(F)cc2c1=O (stereo not drawn) [Example 21 (Mef), 1-Cyclopropyl-6-fluoro-1,4-dihydro-7-{(1∝,5∝,6∝)-6-amino-N-benzyl-3-azabicyclo[3.1.0]hex-6-yl}-4-oxo-1,8-naphthyridine-3-carboxylic acid] | 17 mm
11 | NC1CCN(c2nc3c(cc2F)c(=O)c(C(=O)O)cn3-c2ccc(F)cc2F)C1 (stereo not drawn) [Example 22 (Mef)] | 8 mm
12 | O=C(O)c1cn(-c2ccc(F)cc2F)c2nc(N3C[C@@H]4[C@H](C3)[C@H]4NCc3ccccc3)c(F)cc2c1=O [Example 23 (Mef), 1-(2,4-Difluorophenl)-6-fluoro-1,4-dihydro-7-{(1∝,5∝,6∝)-6-amino-N-benzyl-3-azabicyclo[3.1.0]hex-6-yl}-4-oxo-1,8-naphthyridine-3-carboxylic acid] | 15 mm
13 | CC1(C)CN(c2nc3c(cc2F)c(=O)c(C(=O)O)cn3-c2ccc(F)cc2F)CCC1O (stereo not drawn) [Example 24 (Mef), 1-(2,4-Difluorophenyl)-6-fluoro-1,4-dihydro-7-(3′,3′-dimethyl-4′-hydroxypiperdin-1-yl)-4-oxo-naphthyridine-3-carboxylic acid] | 10 mm
14 | CC1COc2c(N3CCC(O)C(CN)C3)c(F)cc3c(=O)c(C(=O)O)cn1c23 (stereo not drawn) [Example 27 (Mef), 7H-Pyrido[1,2,3-de]-1,4-benzoxazine-9-fluoro-2,3-dihydro-3-methyl-10-(3′-aminomethyl-4′-hydroxypiperidin-1′-yl)-7-oxo-6-carboxylic acid] | 16 mm
15 | CCNC1CCN(c2c(F)c(C)c3c(=O)c(C(=O)O)cn(C4CC4)c3c2F)CC1(C)C (stereo not drawn) [Example 28 (Mef), 1-Cyclopropyl-6,8-difluoro-5-methyl-1,4-dihydro-7-(3′,3′-dimethyl-4′-ethylaminopiperidin-1-yl)-4-oxo-quinoline-3-carboxylic acid] | 10 mm
16 | Cc1c(F)c(F)c(F)c2c1c(=O)c(C(=O)O)cn2C1CC1 [Example 29 (Mef), 1-cyclopropyl-6,7,8-trifluoro-5-methyl-1,4-dihydro-4-oxo-quinoline-3-carboxylic acid] | 10 mm
17 | CCNC1CCN(c2c(F)cc3c(=O)c(C(=O)O)cn4c3c2CC[C@@H]4C)CC1(C)C (stereo partly drawn) [Example 30 (Mef), (S)-(−)-9-Fluoro-6,7-dihydro-8-(3′,3′-dimethyl-4′-ethylaminopiperidin-1-yl)-5-methyl-1-oxo-1H,5H-benzo[i,j]quinolizine-2-carboxylic acid] | 8 mm
18 | NCC1CN(c2cc3c(cc2F)c(=O)c(C(=O)O)cn3C2CC2)CCC1O (stereo not drawn) [Example 31 (Mef), 1-Cyclopropyl-6-fluoro-1,4-dihydro-7-(3′-aminomethyl-4′-hydroxypiperidin 1-yl)-4-oxo-quinoline-3-carboxylic acid] | 6 mm
19 | CC1CN(c2cc3c(cc2F)c(=O)c(C(=O)O)cn3C2CC2)CCC1N(C)C (stereo not drawn) [Example 32 (Mef), 1-Cyclopropyl-6-fluoro-1,4-dihydro-7-(4′-dimethylamino-3′-methylpiperidin-1-yl)-4-oxo-quinoline-3-carboxylic acid] | 8 mm
20 | COc1c(N2CCC(NC3CC3)CC2)c(F)c(N)c2c(=O)c(C(=O)O)cn(C3CC3)c12 [Example 33 (Mef), 5-Amino-1-cyclopropyl-6-fluoro-8-methoxy-1,4-dihydro-7-(4′-cyclopropylaminopiperidin-1-yl)-4-oxo-quinoline-3-carboxylic acid] | 10 mm
21 | CCNC1C(C)CN(c2c(F)c(N)c3c(=O)c(C(=O)O)cn(C4CC4)c3c2OC)CC1C (stereo not drawn) [Example 35 (Mef), 5-Amino-1-cyclopropyl-6-fluoro-8-methoxy-1,4-dihydro-7-{4′-ethylamino-3′,5′-dimethylpiperidin-1-yl}-4-oxo-quinoline-3-carboxylic acid] | 13 mm
22 | CCOC(=O)c1cn(-c2ccc(F)cc2F)c2nc(N3CCC(N)C(CC)C3)c(F)cc2c1=O (stereo not drawn) [Example 36 (Mef), Ethyl 1-(2,4-difluorophenyl)-6-fluoro-1,4-dihydro-7-(4-amino-3-ethylpiperidin-1-yl)-4-oxo-1,8-naphthyridine-3-carboxylate] | 10 mm
23 | CC1CN(c2nc3c(cc2F)c(=O)c(C(=O)O)cn3-c2ccc(F)cc2F)CC(C)C1N (stereo not drawn) [Example 37 (Mef), 1-(2,4-difluorophenyl)-6-fluoro-1,4-dihydro-7-(4-amino-3,5-dimethylpiperidin-1-yl)-4-oxo-1,8-naphthyridine-3-carboxylic acid] | 7 mm
24 | CCOC(=O)c1cn(-c2ccc(F)cc2F)c2nc(N3CCC(N)C(C)(C)C3)c(F)c(C)c2c1=O (stereo not drawn) [Example 38 (Mef), Ethyl 1-(2,4-difluorophenyl)-6-fluoro-5-methyl-1,4-dihydro-7-(4-amino-3,3-dimethylpiperidin-1-yl)-4-oxo-1,8-naphthyridine-3-carboxylate] | 10 mm
25 | C[C@H]1CCc2c(N3CCC(O)C(F)C3)c(F)cc3c(=O)c(C(=O)O)cn1c23 (stereo partly drawn) [Example 39 (Mef), (S)-(−)-9-Fluoro-6,7-dihydro-8-(4′-hydrox 3′-fluoropiperidin-1-yl)-5-methyl-1-oxo-1H,5H-benzo[i,j]quinolizine-2-carboxylic acid] | 8 mm
26 | C[C@H]1CCOc2c(N3CCC(N)CC3)c(F)cc3c(=O)c(C(=O)O)cn1c23.Cl [Example 40 (Mef), 10-Fluoro-11-(4-aminopiperidin-1-yl)-3,4-dihydro-4(S)-methyl-8-oxo-2H,8H-pyrido[1,2,3-ef]-1,5-benzoxazepin-7-carboxylic acid, hydrochloride] | 13 mm
27 | (RS)-(±)-6,7-dihydro-8-(cis-4′-hydroxy-3′-methylpiperidin-1-yl)-5-methyl-1-oxo-1H,5H-benzo[i,j]quinolizine-2-carboxylic acid [Example 42 (Mef)] | 8 mm
